# From patent US5202348A, “Thiarubrine antifungal agents” (The University of British Columbia, priority 1990, dated 1993)
# Like-named read-outs stand apart in the source and are kept apart here.
# Tests used:
# [1] = system: Aspergillus fumigatus; test: Sensitivity of Aspergillus fumigatus, agar diffusion method; format: cell-based; details: read-out: Zone of Growth Inhibition
# Source text: Results were obtained by agar diffusion method. Disc diameter - 6 mm. -* = no zone over disc diameter.
# [2] = system: Bacillus subtilis; details: cited from earlier work
# [3] = system: Coenorhabditis elogans; details: cited from earlier work
# [4] = system: P815; test: Growth inhibition of P815 mastocytoma during 24 hours exposure; format: cell-based, Mouse
# Description: (§1) P815 = Mouse mastocytoma […]
# (§2) a logarithmic scale and percent of growth inhibition for 24 hours exposur
# (§3) on a probability scale.
# [5] = as above; format: cell-based, Mouse; details: mouse, p815 cells
# Description: as §1, §2, §3
# [6] = system: murine cytomegalovirus; details: only in presence of UV-A radiation; cited from earlier work
# [7] = system: P. aeruginosa; test: Growth inhibition of P. aeruginosa during 24 hours exposure; format: cell-based, Pseudomonas aeruginosa; details: Pseudomonas aeruginosa, 24 h
# Description: (§4) Doses inhibiting growth in 50% were estimated by plotting concentration o
# as §2, §3
# [8] = system: C. albicans; test: Growth inhibition of C. albicans during 24 hours exposure; format: cell-based, Candida albicans; details: Candida albicans, 24 h
# Description: as §4, §2, §3
# [9] = system: Candida albicans; details: concentrations comparable to those of amphotericin B; cited from earlier work
# [10] = system: Escherichia coli; details: cited from earlier work
# [11] = system: Aspergillus; test: Anti-Aspergillus activity (summary); format: cell-based; details: Table 14;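 further: Letter grades where Y means active and y means less active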
# [12] = system: bacteriophage M13; details: cited from earlier work
# [13] = system: mouse cells; details: cited from earlier work
# [14] = system: murine cytomegalovirus and Sindbis virus; details: phototoxic activity; cited from earlier work
# [15] = system: L1210; test: Growth inhibition of L1210 during 24 hours exposure; format: cell-based, Mouse; details: Mus musculus, L1210, 24 h, read-out: Concentration causing 50% growth inhibition
# Description: (§5) L1210 = Mouse lymphocytic leukemia
# as §4, §2, §3
# [16] = as above; format: cell-based, Mouse; details: mouse, l1210 cells; Table 2; read-out: Toxicity Index, LC50 L1210 / C. albicans
# Description: as §5, §4, §2, §3
# [17] = system: Sindbis virus; details: only in presence of UV-A radiation; cited from earlier work
# [18] = system: bacteria; test: Anti-bacterial activity (summary); format: cell-based; details: Table 14
# [19] = system: Hycobacteria sp.; details: cited from earlier work
# [20] = system: C. albicans; test: LC50 (24 hrs.), doses required to inhibit growth in 50%, different method; format: cell-based, Candida albicans; details: Candida albicans, 24 h, read-out: LC50 (24 hrs.), dose required to inhibit growth in 50%
# Source text: Doses Required to Inhibit Growth of C. albicans
# in 50% During 24 hrs. (ng/ml)
# [21] = system: Aspergillus fumigatus; details: concentrations comparable to those of amphotericin B; cited from earlier work
# [22] = system: C. albicans; test: Growth inhibition of C. albicans during 24 hours exposure; format: cell-based, Candida albicans; details: Candida albicans, 24 h, read-out: Minimal concentration causing 100% growth inhibition
# [23] = system: Candida; test: Anti-Candida activity (summary); format: cell-based; details: Table 14;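 further: Letter grades where Y means active and y means less active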
# [24] = system: P815 mastocytoma; test: LC50 (24 hrs.), doses required to inhibit growth in 50%, different method; format: cell-based; details: Mus musculus, P815, 24 h, read-out: LC50 (24 hrs.), dose required to inhibit growth in 50%
# [25] = system: E. coli; test: Growth inhibition of E. coli during 24 hours exposure; format: cell-based, Escherichia coli; details: Escherichia coli, 24 h, read-out: Minimal concentration causing 50% growth inhibition
# Description: as §4, §2, §3
# [26] = system: 3T3; test: Growth inhibition of 3T3 during 24 hours exposure; format: cell-based, Mouse; details: Mus musculus, NIH3T3, 24 h, read-out: Concentration causing 50% growth inhibition
# Description: (§6) 3T3 = Mouse fibroblasts
# as §4, §2, §3
# [27] = Growth inhibition of 3T3 during 24 hours exposure; format: cell-based, Mouse; details: mouse, 3t3 cells; Table 2; read-out: Toxicity Index, LC50 3T3 / LC50 C. albicans
# Description: as §6, §4, §2, §3
# [28] = system: E. coli; test: Growth inhibition of E. coli during 24 hours exposure; format: cell-based, Escherichia coli; details: Escherichia coli, 24 h, read-out: Minimal concentration causing 100% growth inhibition
# [29] = system: bacteriophage T4; details: in UV-A only; cited from earlier work
# [30] = system: WEHI-3; test: Growth inhibition of WEHI-3 during 24 hours exposure; format: cell-based, Mouse; details: Mus musculus, WEHI-3, 24 h, read-out: Concentration causing 50% growth inhibition
# Description: (§7) WEHl3 = Mouse myelomonocyte
# as §4, §2, §3
# [31] = as above; format: cell-based, Mouse; details: mouse, wehi-3 cells; Table 2; read-out: Toxicity Index, LC50 WEHI-3 / LC50 C. albicans
# Description: as §7, §4, §2, §3
# [32] = read-out: Minimal concentration causing 50% growth inhibition
structure (smiles),measurement,setting,value
"C=CC#CC#CC1=CC=C(C#CC)SS1 [Thiarubrine A, 3 - (1- -propynyl) 6 (5-hexen-3-yn-1-ynyl)1,2-dithiacyclohexa-3,5-diene]",zone of inhibition at 0.01 µg/disc,[1],8 mm
same,zone of inhibition at 0.1 µg/disc,[1],19 mm
same,zone of inhibition at 1 µg/disc,[1],27 mm
same,zone of inhibition at 10 µg/disc,[1],27 mm
same,Cytotoxic activity,[2],cytotoxic activity
same,Cytotoxic activity,[3],cytotoxic activity
same,"Ratio of concentration needed to inhibit growth in 50%, P815 vs C. albicans","[4]; 50% growth inhibition, Table 4",the same
same,IC50,"[4]; Mus musculus, P815, 24 h, read-out: Concentration causing 50% growth inhibition",0.035 mg/L
same,IC50,"[4]; Mus musculus, P815, 24 h, read-out: Minimal concentration causing 50% growth inhibition",0.035 mg/L
same,IC100,"[4]; Mus musculus, P815, 24 h, read-out: Minimal concentration causing 100% growth inhibition",0.625 µg/mL
same,selectivity ratio at 24 h,"[5]; 100% growth inhibition, Table 3, read-out: Ratio of minimal concentration causing 100% growth inhibition, P815 line vs C. albicans",~4
same,selectivity ratio at 24 h,"[5]; Table 2, read-out: Toxicity Index, LC50 P815 / LC50 C. albicans",1
same,Sensitivity of virus,[6],extremely sensitive
same,IC50,[7]; [32],0.68 mg/L
same,MIC,[7]; read-out: Minimal concentration causing 100% growth inhibition,2.5 mg/L
same,IC50,[8]; read-out: Concentration causing 50% growth inhibition,0.028 mg/L
same,IC50,[8]; [32],0.028 mg/L
same,Antifungal activity,[9],strong antifungal activity
same,Cytotoxic activity,[10],cytotoxic activity
same,Anti-Aspergillus,[11],Y
same,Effect on bacteriophage,[12],completely unaffected
same,Sensitivity of mouse cells,[13]; in presence of UV-A,moderately sensitive
same,Sensitivity of mouse cells,[13]; in the dark,somewhat less sensitive
same,Order of potency,[14],alpha-terthienyl thiarubrine-A > phenylheptatriyne > ACBP-thiophene > thiophene-A
same,IC50,[15],0.035 mg/L
same,selectivity ratio at 24 h,[16],1
same,Sensitivity of virus,[17],extremely sensitive
same,Anti-bacterial,[18],Y
same,Cytotoxic activity,[19],cytotoxic activity
same,IC50,[20],0.04 mg/L
same,Antifungal activity,[21],strong antifungal activity
same,MIC,[22],0.16 mg/L
same,Anti-Candida,[23],Y
same,IC50,[24],0.081 mg/L
same,IC50,[25],0.18 mg/L
same,IC50,[26],0.45 mg/L
same,selectivity ratio at 24 h,[27],12
same,MIC,[28],0.625 mg/L
same,Effect on bacteriophage,[29],slightly affected
same,IC50,[30],0.027 mg/L
same,selectivity ratio at 24 h,[31],1
